Legend:
[1] = Microsomal metabolic stability
Procedure: The final incubation volume was 25 μL. […] The reactions were stopped by the addition of 50 μL methanol containing internal standard at the appropriate time points. The incubation plates were centrifuged at 2500 rpm for 20 min at 4 °C to precipitate the protein. Following protein precipitation, the sample supernatants were analyzed using LC-MS/MS. From a plot of ln peak area ratio (compound peak area/internal standard peak area) against time, the gradient of the line was determined. Subsequently, half-life and intrinsic clearance was calculated using the equations below: Elimination rate constant (k) = (− gradient).

[2] = tested on: 3-NP model of striatal neurodegeneration; experiment: 3-Nitropropionic acid (3-NP) model of striatal neurodegeneration; assay type: in vivo, C57BL/6 N male mice; settings: 10 mg/kg oral gavage every 24 h, sesame oil
Procedure: Supplementary file 40035_2019_148_MOESM6_ESM.pdf: Additional file 6: 3-Nitroproprionic acid model of striatal neurodegeneration. 16-week- old C57BL/6 N male mice (Harlan Ibérica, Barcelona, Spain) were subjected to seven intraperitoneal (i.p.) injections of 50 mg/kg 3-NP (one injection each every 12 h prepared in phosphate-buffered saline (PBS)]. 3-NP-treated animals and their respective non-lesioned controls (injected with PBS) were used for pharmacological studies with VCE-003.2. Treatments consisted of oral gavage every 24 h with VCE-003.2 at a dose of 10 mg/kg using sesame oil as vehicle. 12 h after the last injection of 3-NP motor activity, hindlimb clasping and kyphosis were evaluated as previously described. Animals were euthanized at the indicated time after huntingtin-AAV infection or 12 h after the last injection of 3NP and their brains removed. Statistical analysis: One-way ANOVA followed by the Tuckey’s post hoc test was used to determine the statistical significance. All the in vivo data were expressed as mean ± SEM. […]

[3] = tested on: quinolinic acid-administration model of HD; set-up: method as in PMID 27430371; settings: cited from earlier work
neural progenitor = tested on: neural progenitor; set-up: method as in PMID 27430371; settings: cited from earlier work
adipogenic = settings: compared with full PPARγ-agonists; cited from earlier work

CCCCCC1=C(NCC)C(=O)C(CC=C(C)CCC=C(C)C)=C(O)C1=O [VCE-003.2, 2-(3,7-dimethyl-octa-2,6-dienyl)-6-ethylamino-3-hydroxy-5-pentyl-(1,4) benzoquinone]
intrinsic clearance in vitro (in words) ([1]; human liver microsomes): rapid intrinsic clearance | half-life ([1]; human, microsomes, pH 7.4): 10.6 min | microsomal CLint ([1]; human, microsomes, pH 7.4): 131 µL/min/mg | neuroprotection and anti-inflammatory effect in 3-NP model [2]: neuroprotective and anti-inflammatory | neuroprotection in quinolinic acid model of HD [3]: neuroprotective | neural progenitor survival (neural progenitor): increases neural progenitor survival | adipogenic effect (adipogenic): less adipogenic

— paper PMC6407204, “Oral administration of the cannabigerol derivative VCE-003.2 promotes subventricular zone neurogenesis and protects against mutant huntingtin-induced neurodegeneration” (Translational Neurodegeneration, 2019)
